Among the data in patent US20100092427A1, “Pyridinone Diketo Acids: Inhibitors of HIV Replication in Combination Therapy” (THE UNIVERSITY OF GEORGIA RESEARCH FOUNDATION, priority 2006, published 2010) are EC95, CC95 and half-life values, retold here.

Data set [1] relates to HIVNL4-3. Nature of the data set: anti-HIV data in PBMC for the clinical isolate HIVNL4-3. Type of data set: cell-based.
Data set [2] has as its system PBMC. Briefly: cytotoxicity (CC95) in PBMC, same anti-HIV study.
The nature of data set [3]: physchem. The conditions noted are these: buffer, pH 7.4.
Data set [4] in a line: in vitro. The note with it: human, pooled liver microsomes. On the technique in general: Liver microsomes are a subcellular fraction often used to study metabolism.

Like-named read-outs stand apart in the source and are kept apart here.

The term EC95 denotes the concentration needed for an effect of 95%. Higher therefore signals a need for much substance. Consider `Cc1cn([C@H]2C[C@H](N=[N+]=[N-])[C@@H](CO)O2)c(=O)[nH]c1=O` [AZT, Zidovudine, reference compound], for which the EC95 in data set [1] (AZT in the same study) came to 0.00942 µM. The molecule also gave a CC95 in data set [2] of over 1 µM.
The term half-life denotes the time in which the quantity being followed falls by half. A high value points to slow loss. `O=C(O)/C(O)=C/C(=O)c1cc(Cc2ccccc2)cn(Cc2ccccc2)c1=O` [Compound 8] had an EC95 in data set [1] of 0.61 µM. In addition, the half-life was over 41 h in data set [3] and over 6 h in data set [4]. For the same molecule, in data set [2], the CC95 was over 200 µM.
